Measurements published in PubChem BioAssay AID1259407 (Chemical Carcinogenesis Research Information System (CCRIS), 2018).
The source made the active and inactive calls. How the calls were made is not given here.

System: CCRIS mutagenicity, Ames/micronucleus/aberration tests
Experiment: CCRIS mutagenicity studies

Structure (SMILES): CCCCNC(=O)n1c(NC(=O)OC)nc2ccccc21
- mutagenic call (End Point: IN VIVO CHROMOSOMAL ABERRATIONS, Test System: BONE MARROW CELLS, Species: MOUSE, Strain/Sex: SWISS/MALE, Route: DIET (ORAL)): active; positive at all dose levels (structural and ploidy changes, robertsonian translo
- mutagenic call (Test System: AMES SALMONELLA TYPHIMURIUM, Strain/Indicator: TA97, Metabolic Activation: HAMSTER, LIVER, S-9, AROCLOR 1254 (10%), Method: PREINCUBATION): inactive; negative
- mutagenic call (Test System: AMES SALMONELLA TYPHIMURIUM, Strain/Indicator: TA97, Metabolic Activation: HAMSTER, LIVER, S-9, AROCLOR 1254 (30%), Method: PREINCUBATION): inactive; negative
- mutagenic call (Test System: AMES SALMONELLA TYPHIMURIUM, Strain/Indicator: TA97, Metabolic Activation: NONE, Method: PREINCUBATION): inactive; negative
- mutagenic call (Test System: AMES SALMONELLA TYPHIMURIUM, Strain/Indicator: TA97, Metabolic Activation: RAT, LIVER, S-9, AROCLOR 1254 (10%), Method: PREINCUBATION): inactive; negative
- mutagenic call (Test System: AMES SALMONELLA TYPHIMURIUM, Strain/Indicator: TA97, Metabolic Activation: RAT, LIVER, S-9, AROCLOR 1254 (30%), Method: PREINCUBATION): inactive; negative
- mutagenic call (Test System: AMES SALMONELLA TYPHIMURIUM, Strain/Indicator: TA97A, Metabolic Activation: NONE, Method: STANDARD PLATE): inactive; negative
- mutagenic call (Test System: AMES SALMONELLA TYPHIMURIUM, Strain/Indicator: TA97A, Metabolic Activation: PLANT, HOMOGENATE, S-14, Method: STANDARD PLATE): inactive; negative
- mutagenic call (Test System: AMES SALMONELLA TYPHIMURIUM, Strain/Indicator: TA97A, Metabolic Activation: S-9, Method: STANDARD PLATE): inactive; negative
- mutagenic call (Test System: AMES SALMONELLA TYPHIMURIUM, Strain/Indicator: TA98, Metabolic Activation: HAMSTER, LIVER, S-9, 1254 (10%), Method: PREINCUBATION): inactive; negative
- mutagenic call (Test System: AMES SALMONELLA TYPHIMURIUM, Strain/Indicator: TA98, Metabolic Activation: HAMSTER, LIVER, S-9, AROCLOR 1254 (30%), Method: PREINCUBATION): inactive; negative
- mutagenic call (Test System: AMES SALMONELLA TYPHIMURIUM, Strain/Indicator: TA98, Metabolic Activation: NONE, Method: PREINCUBATION): inactive; negative
- mutagenic call (Test System: AMES SALMONELLA TYPHIMURIUM, Strain/Indicator: TA98, Metabolic Activation: PLANT, HOMOGENATE, S-14, Method: STANDARD PLATE): inactive; negative
- mutagenic call (Test System: AMES SALMONELLA TYPHIMURIUM, Strain/Indicator: TA98, Metabolic Activation: RAT, LIVER, S-9, AROCLOR 1254 (10%), Method: PREINCUBATION): inactive; negative
- mutagenic call (Test System: AMES SALMONELLA TYPHIMURIUM, Strain/Indicator: TA98, Metabolic Activation: RAT, LIVER, S-9, AROCLOR 1254 (30%), Method: PREINCUBATION): inactive; negative
- mutagenic call (Test System: AMES SALMONELLA TYPHIMURIUM, Strain/Indicator: TA98, Metabolic Activation: RAT, LIVER, S-9, AROCLOR 1254, Method: STANDARD PLATE): inactive; negative
- mutagenic call (Test System: AMES SALMONELLA TYPHIMURIUM, Strain/Indicator: TA98, Metabolic Activation: RAT, LIVER, S-9, AROCLOR, Method: STANDARD PLATE): inactive; negative
- mutagenic call (Test System: AMES SALMONELLA TYPHIMURIUM, Strain/Indicator: TA98, Metabolic Activation: S-9, Method: STANDARD PLATE): inactive; negative
- mutagenic call (Test System: AMES SALMONELLA TYPHIMURIUM, Strain/Indicator: TA100, Metabolic Activation: HAMSTER, LIVER, S-9, AROCLOR 1254 (10%), Method: PREINCUBATION): inactive; negative
- mutagenic call (Test System: AMES SALMONELLA TYPHIMURIUM, Strain/Indicator: TA100, Metabolic Activation: HAMSTER, LIVER, S-9, AROCLOR 1254 (30%), Method: PREINCUBATION): inactive; negative
- mutagenic call (Test System: AMES SALMONELLA TYPHIMURIUM, Strain/Indicator: TA100, Metabolic Activation: NONE, Method: PREINCUBATION): inactive; negative
- mutagenic call (Test System: AMES SALMONELLA TYPHIMURIUM, Strain/Indicator: TA100, Metabolic Activation: PLANT, HOMOGENATE, S-14, Method: STANDARD PLATE): inactive; negative
- mutagenic call (Test System: AMES SALMONELLA TYPHIMURIUM, Strain/Indicator: TA100, Metabolic Activation: RAT, LIVER, S-9, AROCLOR 1254 (10%), Method: PREINCUBATION): inactive; negative
- mutagenic call (Test System: AMES SALMONELLA TYPHIMURIUM, Strain/Indicator: TA100, Metabolic Activation: RAT, LIVER, S-9, AROCLOR 1254 (30%), Method: PREINCUBATION): inactive; negative
- mutagenic call (Test System: AMES SALMONELLA TYPHIMURIUM, Strain/Indicator: TA100, Metabolic Activation: RAT, LIVER, S-9, AROCLOR 1254, Method: STANDARD PLATE): inactive; negative
- mutagenic call (Test System: AMES SALMONELLA TYPHIMURIUM, Strain/Indicator: TA100, Metabolic Activation: RAT, LIVER, S-9, AROCLOR, Method: STANDARD PLATE): inactive; negative
- mutagenic call (Test System: AMES SALMONELLA TYPHIMURIUM, Strain/Indicator: TA100, Metabolic Activation: S-9, Method: STANDARD PLATE): inactive; negative
- mutagenic call (Test System: AMES SALMONELLA TYPHIMURIUM, Strain/Indicator: TA1535, Metabolic Activation: HAMSTER, LIVER, S-9, AROCLOR 1254 (10%), Method: PREINCUBATION): inactive; negative
- mutagenic call (Test System: AMES SALMONELLA TYPHIMURIUM, Strain/Indicator: TA1535, Metabolic Activation: HAMSTER, LIVER, S-9, AROCLOR 1254 (30%), Method: PREINCUBATION): inactive; negative
- mutagenic call (Test System: AMES SALMONELLA TYPHIMURIUM, Strain/Indicator: TA1535, Metabolic Activation: NONE, Method: PREINCUBATION): inactive; negative
- mutagenic call (Test System: AMES SALMONELLA TYPHIMURIUM, Strain/Indicator: TA1535, Metabolic Activation: PLANT, HOMOGENATE, S-14, Method: STANDARD PLATE): inactive; negative
- mutagenic call (Test System: AMES SALMONELLA TYPHIMURIUM, Strain/Indicator: TA1535, Metabolic Activation: RAT, LIVER, S-9, AROCLOR 1254 (10%), Method: PREINCUBATION): inactive; negative
- mutagenic call (Test System: AMES SALMONELLA TYPHIMURIUM, Strain/Indicator: TA1535, Metabolic Activation: RAT, LIVER, S-9, AROCLOR 1254 (30%), Method: PREINCUBATION): inactive; negative
- mutagenic call (Test System: AMES SALMONELLA TYPHIMURIUM, Strain/Indicator: TA1535, Metabolic Activation: RAT, LIVER, S-9, AROCLOR 1254, Method: STANDARD PLATE): inactive; negative
- mutagenic call (Test System: AMES SALMONELLA TYPHIMURIUM, Strain/Indicator: TA1535, Metabolic Activation: RAT, LIVER, S-9, AROCLOR, Method: STANDARD PLATE): inactive; negative
- mutagenic call (Test System: AMES SALMONELLA TYPHIMURIUM, Strain/Indicator: TA1535, Metabolic Activation: S-9, Method: STANDARD PLATE): inactive; negative
- mutagenic call (Test System: AMES SALMONELLA TYPHIMURIUM, Strain/Indicator: TA1537, Metabolic Activation: HAMSTER, LIVER, S-9, AROCLOR 1254 (10%), Method: PREINCUBATION): inactive; negative
- mutagenic call (Test System: AMES SALMONELLA TYPHIMURIUM, Strain/Indicator: TA1537, Metabolic Activation: HAMSTER, LIVER, S-9, AROCLOR 1254 (30%), Method: PREINCUBATION): inactive; negative
- mutagenic call (Test System: AMES SALMONELLA TYPHIMURIUM, Strain/Indicator: TA1537, Metabolic Activation: NONE, Method: PREINCUBATION): inactive; negative
- mutagenic call (Test System: AMES SALMONELLA TYPHIMURIUM, Strain/Indicator: TA1537, Metabolic Activation: NONE, Method: STANDARD PLATE): inactive; negative
- mutagenic call (Test System: AMES SALMONELLA TYPHIMURIUM, Strain/Indicator: TA1537, Metabolic Activation: RAT, LIVER, S-9, AROCLOR 1254 (10%), Method: PREINCUBATION): inactive; negative
- mutagenic call (Test System: AMES SALMONELLA TYPHIMURIUM, Strain/Indicator: TA1537, Metabolic Activation: RAT, LIVER, S-9, AROCLOR 1254 (30%), Method: PREINCUBATION): inactive; negative
- mutagenic call (Test System: AMES SALMONELLA TYPHIMURIUM, Strain/Indicator: TA1537, Metabolic Activation: RAT, LIVER, S-9, AROCLOR 1254, Method: STANDARD PLATE): inactive; negative
- mutagenic call (Test System: AMES SALMONELLA TYPHIMURIUM, Strain/Indicator: TA1537, Metabolic Activation: RAT, LIVER, S-9, AROCLOR, Method: STANDARD PLATE): inactive; negative
- mutagenic call (Test System: E. COLI, Strain/Indicator: WP2 UVRA, Metabolic Activation: NONE, Method: FLUCTUATION): active; positive

Structure (SMILES): Cc1cccc2cc3ccc4cccc5ccc(c12)c3c45
- mutagenic call (Test System: AMES SALMONELLA TYPHIMURIUM, Strain/Indicator: TA100, Metabolic Activation: RAT, INTACT HEPATOCYTES, AROCLOR 1254, Method: PREINCUBATION): inactive; negative
- mutagenic call (Test System: AMES SALMONELLA TYPHIMURIUM, Strain/Indicator: TA100, Metabolic Activation: RAT, NADPH-FORTIFIED HOMOGENIZED HEPATOCYTES, AROCLOR 1254, Method: PREINCUBATION): active; positive

Structure (SMILES): CCCCCCCCS(=O)C(C)Cc1ccc2c(c1)OCO2 (stereo not given)
- mutagenic call (End Point: IN VITRO CHROMOSOMAL ABERRATIONS, Test System: CHINESE HAMSTER OVARY CELLS, Metabolic Activation: NONE): inactive; negative
- mutagenic call (End Point: IN VITRO CHROMOSOMAL ABERRATIONS, Test System: CHINESE HAMSTER OVARY CELLS, Metabolic Activation: RAT, LIVER, S-9, AROCLOR 1254): inactive; negative

Structure (SMILES): CC(=O)Nc1cccc2cc(F)cnc12
- mutagenic call (Test System: AMES SALMONELLA TYPHIMURIUM, Strain/Indicator: TA100, Metabolic Activation: RAT, LIVER, S-9, PHENOBARBITAL AND 5,6-BENZOFLAVONE, Method: PREINCUBATION): active; positive
